Test results: US20100040620A1, “ANTI-CANCER ANTIBODIES AGAINST LEWISy AND LEWISb ANTIGENS” (priority 2006, published 2010)

Test system: C170 xenografts
Assay: Prevention model, C170 xenografts
Assay type: in vivo
Conditions: SC101/29 0.2 mg ip 3 times weekly; 5-FU/leucovorin 12.5 mg/kg iv; days 12-23; p<0.004 ANOVA alone, p<0.02 combination
Experimental: Prevention model. The colorectal tumour cell line, C170 was maintained in serial passage in nude mice. For therapy the mice were sacrificed and the tumours excised. The tumour was finely minced and 3 mm^2 pieces were implanted, under anaesthetic (Hypnorm, Roche/Hypnovel, Jannsen), subcutaneously, into 40 male mice which had been randomly allocated to 4 experimental groups. A group of mice were treated with 5-FU/leucovorin (12.5 mg/kg) by intravenous (iv) injection on days 1, 3, 5, 7, 21 and 22. Three times weekly mice were also injected intraperitoneally (ip) with 0.2 mg of SC101/29 mAb. Control mice received either SC101/29 mAb, 5-FU/leucovorin or vehicle alone. Tumour size was measured by callipers and tumour cross-sectional area calculated on days 12, 16, 19 and 23. At the termination of the experiment tumours were weighed to assess anti-tumour efficacy. Animals were weighed to assess the toxicity of treatment.

Substance: 5-FU/leucovorin
- tumour growth of freshly explanted C170 tumours (cross-sectional area): inhibition of tumour growth
